Test results from patent US20060172357A1, “Detecting human antibodies in non-human serum” (Genentech, priority 2004, published 2006).
Where two headings read alike, the source gives them in different places. The star is where a group is joined. Biotin = O=C1N[C@H]2[C@H](CS[C@H]2CCCCC(=O)*)N1

Assays:
rhuMAb2H7 [1] = settings: apparent affinity; Method 2; peptide immobilized on streptavidin chip, 2H7-IgG injected, bivalent analyte model
Protocol: In the second method, affinities were measured with a Biacore 3000 on a strepavidin chip using either immobilized CD20-35 mer, bis(biotin)) at 685 RU, CD20(51-mer, mono(biotin)) at 1637 RU, or CD20(51-mer, bis(biotin)) at 1037 RU.
PBS/Tween/azide was used as the running buffer, at 20 μL/minute, with 20 mM HCl for regeneration. 2H7-IgG was injected, and the resulting data was fit to a bivalent analyte model.

rhuMAb2H7 [2] = settings: apparent equilibrium dissociation constant; Method 1; peptide immobilized on streptavidin chip, 2H7-IgG injected
Protocol: In the first method, affinities were measured with a Biacore 3000 on a strepavidin chip using either immobilized mono-biotinylated CD20-35 mer at 95 RU, or mono-biotinylated CD20-51 mer at 94 RU, where RU is a relative surface plasmon resonance unit based upon an arbitrary scale. The running buffer was HBS-EP flowing at 50 μL/min with 25 μl of 10 mM Glycine-HCl, and a pH of 2.5 for the regeneration. 2H7-IgG was injected, and the resulting data was fit to a 1:1 binding model with Biaevaluation 3.0 software (Biacore AB, Uppsala, Sweden) to get the apparent equilibrium dissociation constants.

CD20 full Length = molecular target: T1, CD20 full Length (Homo sapiens, UniProt P11836); assay: ELISA using full-length CD20 molecule as the capture reagent; type: binding; settings: N 8
T1 construct: MKHQHQQ leader (N); octa-His (C); made in house; host or cells: E. coli
T1 sequence (P11836 1-297): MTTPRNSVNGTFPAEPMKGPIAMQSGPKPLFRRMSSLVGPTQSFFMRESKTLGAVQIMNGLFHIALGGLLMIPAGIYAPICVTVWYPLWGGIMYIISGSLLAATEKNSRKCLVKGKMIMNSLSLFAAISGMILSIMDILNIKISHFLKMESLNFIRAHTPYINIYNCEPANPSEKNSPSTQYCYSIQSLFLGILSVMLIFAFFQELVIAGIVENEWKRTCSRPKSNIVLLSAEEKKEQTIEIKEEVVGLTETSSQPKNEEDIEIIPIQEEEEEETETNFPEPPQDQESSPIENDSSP
Protocol: […] The plate was then washed for 3 times with the washing buffer (PBS with 0.05% polysorbate-20). Blocking buffer (200 μl) was added and the plate was sealed and incubated at room temperature for 2 hours with a gentle agitation. […] After incubating at room temperature for another hour with a gentle agitation, the plate was washed again with the washing buffer for six times and blotted dry. A volume of 100 μl of the detection agent diluted with the detection agent diluent was added and the plate was sealed and incubated at room temperature for one hour with a gentle agitation. The plate was then washed for another six times and blotted dry before the addition of 100 μl of an equal volume of TMB and H2O2. After incubating at room temperature for 15 minutes without agitation, the reaction was stopped by adding another 100 μl of 1 M H3PO4. The absorbance at 450 nm subtracted of that at 650 nm was read from the Spectra Max250 plate reader (Molecular Devices Corporation, Sunnyvale, Calif.), and the data were processed using SoftmaxPro (Molecular Devices Corporation, Sunnyvale, Calif.).

| Substance | Kd (rhuMAb2H7 [1]) [nM] | Kd (rhuMAb2H7 [2]) [µM] | also measured |
| --- | --- | --- | --- |
| Biotin GKISHFLKMESLNFIRAHTPYINIYNCEPANPSEKNSPSTQYCYSIQSGGK (Biotin)-amide [Bis-CD20-51mer] | 110 | – | – |
| Biotin-FIRAHTPYINIYNCEPANPSEKNSPSTQYCYSGGK(Biotin)-NH2 (cysteine pairing not given here) [Bis-CD20-35mer] | 500 | – | – |
| Biotin-FIRAHTPYINIYNCEPANPSEKNSPSTQYCYSGGK-NH2 (cysteine pairing not given here) [Mono-CD20-35mer] | – | 41.7 | – |
| Biotin-GKISHFLKMESLNFIRAHTPYINIYNCEPANPSEKNSPSTQYCYSIQSGGK-NH2 (cysteine pairing not given here) [Mono-CD20-51 mer] | 130 | 0.047 | – |
| Rituxan: anti-CD20 antibody, generated as disclosed in U.S. Pat. No 5,736,137 | – | – | signal of 247 ng/ml of antibody (CD20 full Length; capture reagent 1 μg/mL in PBS, detection Goat anti-hu F(ab′)2 HRP): 0.065 O.D.450 nm; signal of 247 ng/ml of antibody (CD20 full Length; capture reagent 1 μg/mL in PBS, detection Sheep anti-hu IgG HRP (Monkey Adsorbed)): 0.012 O.D.450 nm; signal of 247 ng/ml of antibody (CD20 full Length; capture reagent 5 μg/mL in PBS, detection Goat anti-hu F(ab′)2 HRP): 0.166 O.D.450 nm; signal of 247 ng/ml of antibody (CD20 full Length; capture reagent 5 μg/mL in PBS, detection Sheep anti-hu IgG HRP (Monkey Adsorbed)): 0.023 O.D.450 nm |
